In brackets after ≈: the same amount, converted by molar mass.
Assays:
Type in all cases: cell-based
Aspergillus niger = experiment: MIC, YAG medium, Aspergillus niger; settings: YAG medium; for MIC: Aspergillus niger, read-out: MIC A Niger 1
Experimental: (§1) Measurement of Minimum Inhibitory Concentrations (MICs)
(§2) Between 1 and 5 mgs of compound were accurately weighed out into a sterile Eppendorf tube. The compound was dissolved in DMSO to give a solution containing 5 mg/ml. Tubes were stored at −20° C. until required.
(§3) On the day of testing thawed solutions were vortex mixed to ensure homogeneity. 30 μl of solution was removed and added to 570 μl of sterile water in a separate sterile Eppendorf. The thoroughly mixed solution was used to prepare a series of doubling dilutions in water, in a deep well plate. Eleven replicate plates were prepared using a Minitrak by aspirating 20 μl from each well into eleven clear polystyrene 96 well plates.
(§4) Spores of Aspergillus spp (Aspergillus fumigatus, Aspergillus terreus, Aspergillus niger and Aspergillus flavus) were harvested from cultures grown on Sabarauds agar for 5 days, and resuspended in PBS/Tween 80 to approx 1×10^7 cfu/ml Other filamentous fungi (Fusarium solani, Scedosporium spp., Trichophyton spp., Absidia corymbifera), were grown on Sabarauds agar for 2-10 days and spores/hyphae resuspended in PBS/Tween to give approx 1×10^7 cfU/ml. Candida species (Candida albicans, Candida glabrata, Candida krusei, Candida parapsilosis and Candida tropicalis) were grown on Sabarauds agar, cells were harvested from the agar using a sterile loop and resuspended in PBS/Tween 80 to approx 1×10^6 cfu/ml. Each organism suspension was diluted in RPMI medium, containing 2% glucose and 0.135M MOPS buffer (pH7.0) to 2×10^4 cfu/ml for Aspergillus spp and other filamentous fungi and 2×10^3 cfu/ml for yeast. 80 μl of an organism suspension was added to each well of the plate containing drug dilutions.
(§5) This produced MIC plates with a drug range 50-0.05 mg/L and organism inocula of 1-2×10^4 cfu/ml for Aspergillus spp and other filamentous fungi and 1-2×10^3 cfu/ml for yeasts. All plates were incubated for 24-48 hrs at 35° C. Growth was assessed by monitoring the optical density at 485 nm for each well. The MIC of a compound is the lowest drug concentration that inhibits growth of an organism by >80% compared with a drug free control. MICs are recorded as mg/L. Other growth media can be used for susceptibility testing, and the activity of the described compounds can also be assessed in a medium comprising, 1% glucose, 1% ammonium chloride and 0.5% yeast extract (YAG medium). To perform MIC tests in this medium, dilutions of compounds are prepared in microtitre plates as described above. Fungal strains to be tested are grown and harvested in an identical manner to that described above, each organism suspension is then diluted in YAG medium to 2×10^4 cfu/ml for Aspergillus spp and other filamentous fungi and 2×10^3 cfu/ml for yeast. 80 μl of an organism suspension was added to each well of the plate containing drug dilutions. This produced MIC plates with a drug range 50-0.05 mg/L and organism inocula of 1-2×10^4 cfu/ml for Aspergillus spp and other filamentous fungi and 1-2×10^3 cfu/ml for yeasts. All plates were incubated for 24 hrs at 35° C. Growth was assessed by monitoring the optical density at 485 nm for each well. The MIC of a compound is the lowest drug concentration that inhibits growth of an organism by >70% compared with a drug free control. MICs are recorded as mg/L. In cases where the MIC of an organism is […]0.05 mg/L the MIC is repeated using a concentration range of 0.5-0.0005 mg/L. MIC tests in YAG medium have more clear-cut endpoints and have slightly lower MICS than those performed in RPMI medium.
(§6) The following organisms were tested: Aspergillus fumigatus AF293 and Aspergillus fumigatus AF210, Aspergillus niger, Aspergillus terreus, Aspergillus favus, Candida albicans, Candida krusei, Candida tropicalis, Candida glabrata, Candida parapsilosis, Trichophyton rubrum, Trichophyton mentagrophytes, Scedosporium prolificans, Scedosporium apiospermum, Absidia corymbifera, Fusarium solani.

Aspergillus flavus = experiment: MIC, YAG medium, Aspergillus flavus; settings: YAG medium; for MIC: Aspergillus flavus, read-out: MIC A Flavus 01
Experimental: as §1, §2, §3, §4, §5, §6

[1] = tested on: Aspergillus fumigatus AF293; experiment: MIC, YAG medium, Aspergillus fumigatus AF293; settings: YAG medium; for MIC: Aspergillus fumigatus, AF293, read-out: MIC A Fum. 293
Experimental: as §1, §2, §3, §4, §5, §6

[2] = tested on: Aspergillus fumigatus AF210; experiment: MIC, YAG medium, Aspergillus fumigatus AF210; settings: YAG medium; for MIC: Aspergillus fumigatus, AF210, read-out: MIC A Fum. 210
Experimental: as §1, §2, §3, §4, §5, §6

Aspergillus terreus = experiment: MIC, YAG medium, Aspergillus terreus; settings: YAG medium; for MIC: Aspergillus terreus, read-out: MIC A Terreus 4
Experimental: as §1, §2, §3, §4, §5, §6

SMILES | MIC (Aspergillus niger) | MIC (Aspergillus flavus) | MIC [1] | MIC [2] | MIC (Aspergillus terreus) | MIC A Niger 1 (Aspergillus niger) | MIC A Flavus 01 (Aspergillus flavus) | MIC A Fum. 293 [1] | MIC A Fum. 210 [2] | MIC A Terreus 4 (Aspergillus terreus)
COC(=O)c1ccc(OC(=O)C(=O)c2c(-c3ccccc3)cc3ccccn23)cc1 [Example 177, 4-[2-Oxo-2-(2-phenyl-indolizin-3-yl)-acetoxy]-benzoic acid methyl ester] | 6.25 µg/mL (≈ 15.6 µM) | > 50 µg/mL | 50 µg/mL (≈ 125 µM) | > 50 µg/mL | 6.25 µg/mL (≈ 15.6 µM) |  |  |  |  | 
CNC(=O)C(=O)c1c(-c2ccccc2)cc2ccccn12 [Example 179, N-Methyl-2-oxo-2-(2-phenyl-indolizin-3-yl)-acetamide] | > 50 µg/mL | 25 µg/mL (≈ 89.8 µM) | 12.5 µg/mL (≈ 44.9 µM) | 12.5 µg/mL (≈ 44.9 µM) | 6.25 µg/mL (≈ 22.5 µM) |  |  |  |  | 
COCCNC(=O)C(=O)c1c(-c2ccccc2)cc2ccccn12 [Example 181, N-(2-Methoxy-ethyl)-2-oxo-2-(2-phenyl-indolizin-3-yl)-acetamide] | 25 µg/mL (≈ 77.6 µM) | 25 µg/mL (≈ 77.6 µM) | 50 µg/mL (≈ 155 µM) | 25 µg/mL (≈ 77.6 µM) | 25 µg/mL (≈ 77.6 µM) |  |  |  |  | 
O=C(NCc1ccccc1)C(=O)c1c(-c2ccccc2)cc2ccccn12 [Example 182, N-Benzyl-2-oxo-2-(2-phenyl-indolizin-3-yl)-acetamide] | > 50 µg/mL | > 50 µg/mL | > 50 µg/mL | > 50 µg/mL | 0.2 µg/mL (≈ 0.564 µM) |  |  |  |  | 
CN(C)C(=O)C(=O)c1c(-c2ccccc2)cc2ccccn12 [Example 183, N,N-Dimethyl-2-oxo-2-(2-phenyl-indolizin-3-yl)-acetamide] | > 50 µg/mL | > 50 µg/mL | > 50 µg/mL | 25 µg/mL (≈ 85.5 µM) | 12.5 µg/mL (≈ 42.8 µM) |  |  |  |  | 
O=C(C(=O)N1CCCCC1)c1c(-c2ccccc2)cc2ccccn12 [Example 184, 1-(2-Phenyl-indolizin-3-yl)-2-piperidin-1-yl-ethane-1,2-dione] | 0.8 µg/mL (≈ 2.41 µM) | 50 µg/mL (≈ 150 µM) | 25 µg/mL (≈ 75.2 µM) | 6.25 µg/mL (≈ 18.8 µM) | 6.25 µg/mL (≈ 18.8 µM) |  |  |  |  | 
Cc1ccc(NC(=O)C(=O)c2c(-c3ccccc3)cc3cccc(C)n23)cc1 [Example 188, 2-(5-Methyl-2-phenyl-indolizin-3-yl)-2-oxo-N-p-tolyl-acetamide] | 0.4 µg/mL (≈ 1.09 µM) | 3.1 µg/mL (≈ 8.41 µM) | 1.6 µg/mL (≈ 4.34 µM) | 0.8 µg/mL (≈ 2.17 µM) | 0.8 µg/mL (≈ 2.17 µM) |  |  |  |  | 
COc1ccc(NC(=O)C(=O)c2c(-c3ccccc3)cc3cccc(C)n23)cn1 [Example 189, N-(6-Methoxy-pyridin-3-yl)-2-(5-methyl-2-phenyl-indolizin-3-yl)-2-oxo-acetamide] | 0.8 µg/mL (≈ 2.08 µM) | 3.1 µg/mL (≈ 8.04 µM) | 3.1 µg/mL (≈ 8.04 µM) | 3.1 µg/mL (≈ 8.04 µM) | 1.6 µg/mL (≈ 4.15 µM) |  |  |  |  | 
COc1ccc(NC(=O)C(=O)c2c(-c3ccccc3)cc3c(C)cccn23)cn1 [Example 194, N-(6-Methoxoy-pyridin-3-yl)-2-(8-methyl-2-phenyl-indolizin-3-yl)-2-oxo-acetamide] |  |  |  |  |  | >50 µg/mL | >50 µg/mL | >50 µg/mL | >50 µg/mL | 25 µg/mL (≈ 64.9 µM)
O=C(Nc1ccc(Cl)cc1)C(=O)c1c(-c2cccnc2)cc2ccccn12 [Example 197, N-(4-Chloro-phenyl)-2-oxo-2-(2-pyridin-3-yl-indolizin-3-yl)-acetamide] | 0.8 µg/mL (≈ 2.13 µM) | 0.4 µg/mL (≈ 1.06 µM) | 3.1 µg/mL (≈ 8.25 µM) | 3.1 µg/mL (≈ 8.25 µM) | 0.2 µg/mL (≈ 0.532 µM) |  |  |  |  | 

Second part, the compound after the results:

MIC (Aspergillus niger) | MIC (Aspergillus flavus) | MIC [1] | MIC [2] | MIC (Aspergillus terreus) | MIC A Niger 1 (Aspergillus niger) | MIC A Flavus 01 (Aspergillus flavus) | MIC A Fum. 293 [1] | MIC A Fum. 210 [2] | MIC A Terreus 4 (Aspergillus terreus) | SMILES
0.2 µg/mL (≈ 0.577 µM) | 1.6 µg/mL (≈ 4.62 µM) | 0.8 µg/mL (≈ 2.31 µM) | 0.8 µg/mL (≈ 2.31 µM) | 0.1 µg/mL (≈ 0.289 µM) |  |  |  |  |  | O=C(NC1CCCCC1)C(=O)c1c(-c2ccccc2)cc2ccccn12 [Example 178, N-Cyclohexyl-2-oxo-2-(2-phenyl-indolizin-3-yl)-acetamide]
3.1 µg/mL (≈ 10.1 µM) | > 50 µg/mL | 6.25 µg/mL (≈ 20.4 µM) | 6.25 µg/mL (≈ 20.4 µM) | 6.25 µg/mL (≈ 20.4 µM) |  |  |  |  |  | CC(C)NC(=O)C(=O)c1c(-c2ccccc2)cc2ccccn12 [Example 180, N-Isopropyl-2-oxo-2-(2-phenyl-indolizin-3-yl)-acetamide]
3.1 µg/mL (≈ 8.75 µM) | 25 µg/mL (≈ 70.5 µM) | 12.5 µg/mL (≈ 35.3 µM) | 3.1 µg/mL (≈ 8.75 µM) | 12.5 µg/mL (≈ 35.3 µM) |  |  |  |  |  | CN(C(=O)C(=O)c1c(-c2ccccc2)cc2ccccn12)c1ccccc1 [Example 186, N-Methyl-2-oxo-N-phenyl-2-(2-phenyl-indolizin-3-yl)-acetamide]
3.1 µg/mL (≈ 8.72 µM) | > 50 µg/mL | > 50 µg/mL | > 50 µg/mL | > 50 µg/mL |  |  |  |  |  | CN(C(=O)C(=O)c1c(-c2cccnc2)cc2ccccn12)c1ccccc1 [Example 187, N-Methyl-2-oxo-N-phenyl-2-(2-pyridin-3-yl-indolizin-3-yl)-acetamide]
0.4 µg/mL (≈ 1.09 µM) | 0.4 µg/mL (≈ 1.09 µM) | 1.6 µg/mL (≈ 4.34 µM) | 1.6 µg/mL (≈ 4.34 µM) | 0.1 µg/mL (≈ 0.271 µM) |  |  |  |  |  | Cc1ccc(NC(=O)C(=O)c2c(-c3ccccc3)cc3ccc(C)cn23)cc1 [Example 190, 2-(6-Methyl-2-phenyl-indolizin-3-yl)-2-oxo-N-p-tolyl-acetamide]
1.6 µg/mL (≈ 4.34 µM) | 0.8 µg/mL (≈ 2.17 µM) | 3.1 µg/mL (≈ 8.41 µM) | 3.1 µg/mL (≈ 8.41 µM) | 0.2 µg/mL (≈ 0.543 µM) |  |  |  |  |  | Cc1ccc(NC(=O)C(=O)c2c(-c3ccccc3)cc3cc(C)ccn23)cc1 [Example 191, 2-(7-Methyl-2-phenyl-indolizin-3-yl)-2-oxo-N-p-tolyl-acetamide]
0.8 µg/mL (≈ 2.08 µM) | 0.4 µg/mL (≈ 1.04 µM) | 1.6 µg/mL (≈ 4.15 µM) | 1.6 µg/mL (≈ 4.15 µM) | 0.4 µg/mL (≈ 1.04 µM) |  |  |  |  |  | COc1ccc(NC(=O)C(=O)c2c(-c3ccccc3)cc3ccc(C)cn23)cn1 [Example 192, N-(6-Methoxy-pyridin-3-yl)-2-(6-methyl-2-phenyl-indolizin-3-yl)-2-oxo-acetamide]
> 50 µg/mL | 6.25 µg/mL (≈ 16.2 µM) | > 50 µg/mL | > 50 µg/mL | 0.8 µg/mL (≈ 2.08 µM) |  |  |  |  |  | COc1ccc(NC(=O)C(=O)c2c(-c3ccccc3)cc3cc(C)ccn23)cn1 [Example 193, N-(6-Methoxy-pyridin-3-yl)-2-(7-methyl-2-phenyl-indolizin-3-yl)-2-oxo-acetamide]
1.6 µg/mL (≈ 3.99 µM) | 0.4 µg/mL (≈ 0.996 µM) | 6.25 µg/mL (≈ 15.6 µM) | 6.25 µg/mL (≈ 15.6 µM) | 0.4 µg/mL (≈ 0.996 µM) |  |  |  |  |  | COc1ccc2cc(-c3ccccc3)c(C(=O)C(=O)Nc3ccc(OC)nc3)n2c1 [Example 195, 2-(6-Methoxy-2-phenyl-indolizin-3-yl)-N-(6-methoxy-pyridin-3-yl)-2-oxo-acetamide]
1.6 µg/mL (≈ 4.45 µM) | 0.8 µg/mL (≈ 2.23 µM) | 3.1 µg/mL (≈ 8.63 µM) | > 50 µg/mL | 0.8 µg/mL (≈ 2.23 µM) |  |  |  |  |  | O=C(Nc1ccc(F)cc1)C(=O)c1c(-c2cccnc2)cc2ccccn12 [Example 198, N-(4-Fluoro-phenyl)-2-oxo-2-(2-pyridin-3-yl-indolizin-3-yl)-acetamide]
> 50 µg/mL | > 50 µg/mL | > 50 µg/mL | > 50 µg/mL | 1.6 µg/mL (≈ 4.33 µM) |  |  |  |  |  | Cc1ccc(NC(=O)C(=O)c2c(-c3cccnc3)cc3ccc(C)cn23)cc1 [Example 199, 2-(6-Methyl-2-pyridin-3-yl-indolizin-3-yl)-2-oxo-N-p-tolyl-acetamide]
0.05 µg/mL (≈ 0.133 µM) | 0.1 µg/mL (≈ 0.267 µM) | 0.8 µg/mL (≈ 2.13 µM) | 0.8 µg/mL (≈ 2.13 µM) | 0.05 µg/mL (≈ 0.133 µM) |  |  |  |  |  | O=C(Nc1ccccc1Cl)C(=O)c1c(-c2ccccc2)cc2ccccn12 [Example 207, N-(2-Chloro-phenyl)-2-oxo-2-(2-phenyl-indolizin-3-yl)-acetamide]
> 50 µg/mL | > 50 µg/mL | > 50 µg/mL | > 50 µg/mL | 12.5 µg/mL (≈ 30.3 µM) |  |  |  |  |  | CCOC(=O)c1ccccc1NC(=O)C(=O)c1c(-c2ccccc2)cc2ccccn12 [Example 208, 2-[2-Oxo-2-(2-phenyl-indolizin-3-yl)-acetylamino]-benzoic acid ethyl ester]

From patent publication US8486962B2, “Antifungal agents” (F2G Ltd., priority 2005, dated 2013)
